Data published in paper PMC8167799, “Discovery and Characterization of the Biflavones From Ginkgo biloba as Highly Specific and Potent Inhibitors Against Human Carboxylesterase 2” (Frontiers in Pharmacology, 2021).

Target: T1, CES2 (Homo sapiens, UniProt O00748)
T1 construct: tissue Bioreclamation IVT; […]
T1 sequence (O00748 27-559): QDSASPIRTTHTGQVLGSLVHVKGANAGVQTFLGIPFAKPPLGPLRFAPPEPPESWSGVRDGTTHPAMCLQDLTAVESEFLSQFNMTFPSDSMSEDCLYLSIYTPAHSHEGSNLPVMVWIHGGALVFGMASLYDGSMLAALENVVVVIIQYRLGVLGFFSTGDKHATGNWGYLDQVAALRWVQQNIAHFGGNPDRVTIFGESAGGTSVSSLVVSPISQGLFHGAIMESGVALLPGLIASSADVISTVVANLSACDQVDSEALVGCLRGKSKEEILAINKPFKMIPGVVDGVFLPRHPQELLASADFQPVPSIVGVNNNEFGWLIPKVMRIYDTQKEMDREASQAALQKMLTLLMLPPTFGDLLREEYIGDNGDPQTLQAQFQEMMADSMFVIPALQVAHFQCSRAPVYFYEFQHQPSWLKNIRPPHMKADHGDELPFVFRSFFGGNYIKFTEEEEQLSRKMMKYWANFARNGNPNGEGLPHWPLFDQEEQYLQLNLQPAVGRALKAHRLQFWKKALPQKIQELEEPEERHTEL
Test: Inhibition of CES2-catalyzed FD hydrolysis in HLMs
Assay type: biochemical
Conditions: FD as probe substrate, logarithm of IC50 in nM
Experimental: The incubation system contains following components (total volume 200 μL): 2 μL DMSO/inhibitor, 2 μL HLMs (2 μg/ml, final concentration), […] buffer PBS (pH = =7.4).

CES2 lg (IC50/nM): 3.72 ± 0.10
Substance: Quinatic acid
